Where two headings read alike, the source gives them in different places.
Assays:
Caco-2 cells [1] = experiment: Alamar Blue cell viability assay, Caco-2; type: cell-based, human; settings: Homo sapiens, Caco-2
Protocol: (§1) The safety profile of T. carnosus AD and HE extracts was evaluated in Caco-2 and HepG2 cells using an Alamar Blue® (Invitrogen; Alfagene, Lisboa, Portugal) assay. An initial screening was performed for all extracts at concentrations ranging between 100 and 1000 µg/mL. Due to the higher toxicity of the HE extracts, which was previously described for various extracts of Thymus species using the same extraction methods (e.g., T. mastichina and Thymus zygis), a different set of concentrations was used for the HE extracts (between 100 and 300 µg/mL for Caco-2 cells and 50 and 150 µg/mL for HepG2 cells). Figure 1 presents the data related to the cell viability assays in Caco-2 (panels A–E) and HepG2 cells (panels F–J) exposed to T. carnosus extracts, as indicated.
(§2) The safety profile of T. carnosus extracts was assessed in Caco-2 and HepG2 cells. Caco-2 (human colon adenocarcinoma cell line) were obtained from CLS (Cell Lines Service, Eppelheim, Germany), and HepG2 (human hepatocellular carcinoma cell line) were obtained from ATCC (American Type Culture Collection, Manassas, VA, USA).
(§3) Cell culture maintenance, handling, subculturing, and seeding were performed as described by Silva et al., 2020 [5], and cell viability was assessed using an Alamar Blue® assay, as described by Andreani et al., 2014 [64]. Concentrations ranged between 100 and 1000 µg/mL for AD extracts in both cell lines and 100 to 300 µg/mL or 50 to 150 µg/mL for HE extracts in Caco-2 and HepG2 cells, respectively. The effect of individual compounds on cell viability was assessed for concentrations ranging from 50 to 300 µM. All test solutions were prepared by diluting the samples in FBS-free culture media from the stock solutions described in Section 3.2, just prior to being used.
(§4) The results are presented as mean ± SD of at least three independent assays. The calculation of IC50 values was performed as described by Silva et al., 2020 [5]. Data analysis, graphical design, and statistical analysis were performed using Microsoft Office Excel (Professional Plus 2019; Microsoft Corporation, Washington, DC, USA) and GraphPad Prism (Version 8; GraphPad Software Inc., San Diego, CA, USA). Flow cytometry data analysis was performed using BD Accuri™ C6 Software, version 1.0.264.21 (Becton Dickinson, San Diego, CA, USA).

HepG2 cells [2] = experiment: Alamar Blue cell viability assay, HepG2; type: cell-based, human; settings: Homo sapiens, HepG2
Protocol: as §1, §2, §3, §4

Caco-2 cells [3] = experiment: Intracellular ROS (DCFDA, flow cytometry), Caco-2; type: cell-based; settings: compound 50 µM, 24 h
Protocol: (§5) The cells were then equally divided for each assay.
(§6) Intracellular ROS level assessment was performed as described by Silva et al., 2022 [65], using dichlorodihydrofluorescein diacetate (DCFDA). Cells obtained in the previous step were centrifuged, the supernatant discarded, and 200 µL of DCFDA (10 µM in FBS-free DMEM) was added. Cells were incubated for 45 min (37 °C, in the dark), washed to remove excess probe, and resuspended in PBS for data acquisition.

HepG2 cells [4] = experiment: Intracellular ROS (DCFDA, flow cytometry), HepG2; type: cell-based, human; settings: compound 50 µM, 24 h
Protocol: as §5, §6

HepG2 cells [5] = experiment: Mitochondrial membrane potential (JC-1, flow cytometry), HepG2; type: cell-based, human; settings: compound 50 µM, 24 h
Procedure, shortened: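 HepG2 cells were exposed for 24 h to extracts at 100 µg/mL or single phytochemicals at 50 µM in FBS-free medium. Harvested cells were then stained with 2 µM JC-1 for 20 min at 37 °C in the dark and analysed by flow cytometry at 10,000 events, with unexposed cells as negative control.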

Caco-2 cells [6] = experiment: Cell cycle arrest (PI, flow cytometry), Caco-2; type: cell-based; settings: compound 50 µM, 24 h; listed as UA
Protocol: as §5
(§7) Cell cycle arrest assessment was performed as described in [1]. Cells were processed as described above until cell detachment and centrifuged, after which the second washing step was performed with ice-cold PBS (0 °C). After centrifugation, the supernatant was discarded, and cells were fixed with 500 µL of ethanol:PBS solution (70:30, % v/v, previously cooled at −20 °C) for at least 4 h at −20 °C. After fixation, two washing cycles were performed: the first with ice-cold PBS (0 °C) and the second with room-temperature PBS, followed by the addition of 200 µL of a PBS solution containing PI (50 µg/mL), RNAse A (50 µg/mL), and Triton X-100 (0.1%). Cells were incubated for 30 min at 37 °C, and then cells were washed once with PBS to remove the staining solution. After resuspension in PBS, the data were acquired.

HepG2 cells [7] = experiment: Cell cycle arrest (PI, flow cytometry), HepG2; type: cell-based, human; settings: compound 50 µM, 24 h
Protocol: as §5, §7

Caco-2 cells [8] = experiment: Annexin V-FITC/PI apoptosis/necrosis, Caco-2; type: cell-based; settings: compound 50 µM, 24 h
Protocol: as §5
(§8) For the assessment of apoptotic/necrotic cell death, an Annexin V-FITC (Thermo Fisher Scientific, Waltham, MA, USA) and propidium iodide (PI; Merck, Darmstadt, Germany) double-staining assay was used to evaluate the apoptotic/necrotic cell death induced by T. carnosus extracts and by individual phytochemicals, as described previously. Briefly, after detachment and washing, the supernatant was discarded, and 200 µL of Annexin V-FITC (1:200 dilution in Annexin-binding buffer [10 mM HEPES sodium salt, 150 mM NaCl, 5 mM KCl, 5 mM MgCl2, and 1.8 mM CaCl2; pH = 7.4]) was added. Cells were incubated for 20 min (room temperature, in the dark). After incubation, 5 µL of propidium iodide (PI; 50 µg/mL) was added, the cells were incubated for 5 min on ice (in the dark), and the data were acquired.

HepG2 cells [9] = experiment: Annexin V-FITC/PI apoptosis/necrosis, HepG2; type: cell-based, human; settings: compound 50 µM, 24 h
Protocol: as §5, §8

[10] = system: hepatocarcinoma cells (HuH7); parameters: method as in PMID 20415421; settings: 20-80 µM; cited from earlier work
[11] = system: human glioblastoma cells (DBTRG-05MG); parameters: method as in PMID 25131308; settings: cited from earlier work
[12] = system: colorectal cancer (HCT15) cells; parameters: method as in PMID 12046077; settings: cited from earlier work
[13] = parameters: method as in PMID 31344882, PMID 26042707; settings: cited from earlier work
HepG2 cells [14] = settings: read-out: IC50, HepG2 cells; 72 h; cited from earlier work

Q: For `C[C@H]1[C@H](C)CC[C@]2(C(=O)O)CC[C@]3(C)C(=CC[C@@H]4[C@@]5(C)CC[C@H](O)C(C)(C)[C@@H]5CC[C@]43C)[C@H]12` [Ursolic acid, ursolic acid], which IC50 (Caco-2 cells [1]; 24 h exposure, read-out: IC50 (µM) - Caco-2 cells: 24 h) is on record?
A: 59 ± 1.35 µM

Q: What about the IC50 (Caco-2 cells [1]; 48 h exposure, read-out: IC50 (µM) - Caco-2 cells: 48 h) of the same molecule?
A: 44.3 ± 2.31 µM

Q: And the IC50 (HepG2 cells [2]; 24 h exposure, read-out: IC50 (µM) - HepG2 cells: 24 h)?
A: 79.6 ± 2.45 µM

Q: What about the IC50 (HepG2 cells [2]; 48 h exposure, read-out: IC50 (µM) - HepG2 cells: 48 h) of the same molecule?
A: 75.2 ± 1.97 µM

Q: What about the “change in intracellular ROS, Caco-2” value (Caco-2 cells [3]) of the same molecule?
A: increase in ROS

Q: What about the “change in intracellular ROS, HepG2” value (HepG2 cells [4]) of the same molecule?
A: significant (p < 0.05) increase in intracellular HepG2 ROS levels

Q: And the “MMP modulation, HepG2” value (HepG2 cells [5])?
A: slight increase

Q: And the “cell cycle effect, Caco-2” value (Caco-2 cells [6])?
A: cell cycle arrest in G0/G1

Q: What about the “cell cycle effect, HepG2” value (HepG2 cells [7]) of the same molecule?
A: no UA-induced cytostatic effect

Q: What about the “percentage of cells in late apoptosis, Caco-2” value (Caco-2 cells [8]) of the same molecule?
A: ~ 70%

Q: What about the “percentage of cells in necrosis, Caco-2” value (Caco-2 cells [8]) of the same molecule?
A: ~ 12%

Q: What about the “cell death induction, HepG2” value (HepG2 cells [9]) of the same molecule?
A: only slightly increased (p < 0.05) the percentage of necrotic cells

Q: And the “MMP modulation, HuH7” value [10]?
A: reduce MMP

Q: What about the “cell death type, DBTRG-05MG” value ([11]; 17.50 µM) of the same molecule?
A: mitochondria-dependent necrosis

Q: And the “MMP modulation, DBTRG-05MG” value [11]?
A: transient hyperpolarization of the mitochondria membrane

Q: What about the “cell cycle effect, HCT15” value [12] of the same molecule?
A: cytostatic effect in the G0/G1 phase

Q: What about the “lipophilicity” value [13] of the same molecule?
A: high lipophilicity

Q: What about the “water solubility” value [13] of the same molecule?
A: poor water solubility

Q: And the IC50 (HepG2 cells [14])?
A: 41 µM

— article PMC11120720, “Linking Variability in Phytochemical Composition with Safety Profile of Thymus carnosus Boiss. Extracts: Effect of Major Compounds and Evaluation of Markers of Oxidative Stress and Cell Death” (International Journal of Molecular Sciences, 2024)
